Experimental data reported in ChEMBL document CHEMBL3600292, “Anti-HIV screening for cell-penetrating peptides using chloroquine and identification of anti-HIV peptides derived from matrix proteins” (Bioorg Med Chem, 2015).
Starred links: 1 amine or outer side, 2 acyl side, 3 side chain; linkers in the order of their positions; H or OH if unused. Positions of bridges follow the written chain, without caps; N, C: chain ends. Non-standard residues stand in square brackets, D forms with d. Residues, ends and D or L forms follow the SMILES beside them. Chains are numbered I, II in the order given. *: point of attachment. Orn = NCCC[C@H](N)C(=O)O; X1 = O=C(C[*:1])[*:2]; Cam = NC(=O)C*

Assays:
[1] = Cytotoxicity against human PM1 cells expressing CCR5 by MTT assay in presence of 5 uM of chloroquine; assay type: cell-based
[2] = test system: Human immunodeficiency virus 1; test: Antiviral activity against T-cell line-tropic HIV1 NL4-3 infected in human MT4 cells assessed as inhibition of virus-induced cytopathogenicity after 5 days by MTT assay in presence of 10 uM of chloroquine; assay type: functional, organism-based; settings: Human immunodeficiency virus 1, NL4-3, MT4, 120 h
[3] = test system: Human immunodeficiency virus 1; test: Antiviral activity against T-cell line-tropic HIV1 NL4-3 infected in human MT4 cells assessed as inhibition of virus-induced cytopathogenicity after 5 days by MTT assay in presence of 5 uM of chloroquine; assay type: functional, organism-based; settings: Human immunodeficiency virus 1, NL4-3, MT4, 120 h
[4] = Cytotoxicity against human MT4 cells by MTT assay; assay type: cell-based
[5] = Cytotoxicity against human MT4 cells by MTT assay in presence of 10 uM of chloroquine; assay type: cell-based
[6] = Cytotoxicity against human MT4 cells by MTT assay in presence of 2.5 uM of chloroquine; assay type: cell-based
[7] = test system: Human immunodeficiency virus 1; test: Antiviral activity against T-cell line-tropic HIV1 NL4-3 infected in human MT4 cells assessed as inhibition of virus-induced cytopathogenicity after 5 days by MTT assay in presence of 2.5 uM of chloroquine; assay type: functional, organism-based; settings: Human immunodeficiency virus 1, NL4-3, MT4, 120 h
[8] = test system: Human immunodeficiency virus 1; test: Antiviral activity against macrophage-tropic HIV1 NL(AD8) infected in human PM1 expressing CCR5 cells assessed as inhibition of virus-induced cytopathogenicity after 5 days by MTT assay in presence of 5 uM of chloroquine; assay type: functional, organism-based; settings: Human immunodeficiency virus 1, NL(AD8), PM1/CCR5, 120 h
[9] = test system: Human immunodeficiency virus 1; test: Antiviral activity against T-cell line-tropic HIV1 NL4-3 infected in human MT4 cells assessed as inhibition of virus-induced cytopathogenicity after 5 days by MTT assay; assay type: functional, organism-based; settings: Human immunodeficiency virus 1, NL4-3, MT4, 120 h
[10] = Cytotoxicity against human MT4 cells by MTT assay in presence of 5 uM of chloroquine; assay type: cell-based

Row | SMILES | CC50 [1] | EC50 [2] | EC50 [3] | CC50 [4] | CC50 [5] | CC50 [6] | EC50 [7] | EC50 [8] | EC50 [9] | CC50 [10]
1 | CC[C@H](C)[C@H](NC(=O)[C@H](CCCNC(=N)N)NC(=O)[C@H](CCC(N)=O)NC(=O)[C@H](Cc1c[nH]cn1)NC(=O)[C@@H](NC(=O)[C@H](CO)NC(=O)[C@H](Cc1ccc(O)cc1)NC(=O)[C@H](CC(C)C)NC(=O)[C@@H](NC(=O)[C@H](C)NC(=O)[C@@H](NC(=O)[C@@H](NC(C)=O)[C@@H](C)O)[C@@H](C)CC)C(C)C)C(C)C)C(=O)N[C@@H](CC(=O)O)C(=O)N[C@H](C(=O)N[C@@H](CCCCN)C(=O)NCC(=O)N[C@@H](CSCC(=O)N[C@@H](CCCNC(=N)N)C(=O)N[C@@H](CCCN)C(=O)N[C@@H](CCCNC(=N)N)C(=O)N[C@@H](CCCN)C(=O)N[C@@H](CCCNC(=N)N)C(=O)N[C@@H](CCCN)C(=O)N[C@@H](CCCNC(=N)N)C(=O)N[C@@H](CCCN)C(N)=O)C(N)=O)C(C)C (I: Ac-TIAVLYSVHQRIDVKGC-NH2 / II: R[Orn]R[Orn]R[Orn]R[Orn]-NH2; linker I:17-II:N via X1) | 7.2 µM | 0.2 µM | 0.62 µM | 10 µM | 9.1 µM | 6.1 µM | 1.6 µM | 1.1 µM | 6.3 µM | 11 µM
2 | CC[C@H](C)[C@H](NC(=O)[C@H](CCCNC(=N)N)NC(=O)[C@H](CCC(N)=O)NC(=O)[C@H](Cc1cnc[nH]1)NC(=O)[C@@H](NC(=O)[C@H](CO)NC(=O)[C@H](Cc1ccc(O)cc1)NC(=O)[C@H](CC(C)C)NC(=O)[C@@H](NC(=O)[C@H](C)NC(=O)[C@@H](NC(=O)[C@@H](NC(C)=O)[C@@H](C)O)[C@@H](C)CC)C(C)C)C(C)C)C(=O)N[C@@H](CC(=O)O)C(=O)N[C@H](C(=O)N[C@@H](CCCCN)C(=O)NCC(=O)N[C@@H](CSCC(N)=O)C(N)=O)C(C)C (Ac-TIAVLYSVHQRIDVKGC(Cam)-NH2) | > 50 µM | 0.65 µM | 22 µM | > 50 µM | > 50 µM | > 50 µM | > 50 µM | > 50 µM | > 50 µM | 47 µM
3 | c1cc(CN2CCCNCCNCCCNCC2)ccc1CN1CCCNCCNCCCNCC1 [PLERIXAFOR] | > 50 µM |  | 0.025 µM | > 50 µM | > 50 µM | > 50 µM | 0.039 µM | > 50 µM | 0.032 µM | > 50 µM
4 | CC[C@H](C)[C@H](NC(=O)[C@H](CCCNC(=N)N)NC(=O)[C@H](CCC(N)=O)NC(=O)[C@H](Cc1c[nH]cn1)NC(=O)[C@@H](NC(=O)[C@H](CO)NC(=O)[C@H](Cc1ccc(O)cc1)NC(=O)[C@H](CC(C)C)NC(=O)[C@@H](NC(=O)[C@H](C)NC(=O)[C@@H](NC(=O)[C@@H](NC(=O)[C@H](CC(N)=O)NC(C)=O)[C@@H](C)O)[C@@H](C)CC)C(C)C)C(C)C)C(=O)N[C@@H](CC(=O)O)C(=O)N[C@H](C(=O)NCC(=O)N[C@@H](CSCC(=O)N[C@@H](CCCNC(=N)N)C(=O)N[C@@H](CCCN)C(=O)N[C@@H](CCCNC(=N)N)C(=O)N[C@@H](CCCN)C(=O)N[C@@H](CCCNC(=N)N)C(=O)N[C@@H](CCCN)C(=O)N[C@@H](CCCNC(=N)N)C(=O)N[C@@H](CCCN)C(N)=O)C(=O)O)C(C)C (I: Ac-NTIAVLYSVHQRIDVGC-OH / II: R[Orn]R[Orn]R[Orn]R[Orn]-NH2; linker I:17-II:N via X1) | 17 µM |  | 2 µM | 18 µM |  |  |  | 5.6 µM | > 18 µM | 18 µM
5 | Cc1cn([C@H]2C[C@H](N=[N+]=[N-])[C@@H](CO)O2)c(=O)[nH]c1=O [ZIDOVUDINE] | > 100 µM |  | 0.013 µM | > 100 µM | 31 µM | 27 µM | 0.015 µM | 0.51 µM | 0.12 µM | > 100 µM
